According to patent US20120004235A1, “METHODS TO TREAT CANCER” (Rutgers, The State University of New Jersey, priority 2009, published 2012):
Read-outs that look alike come from different tables or passages of the source. Each block holds one compound with its values, some of them ahead of it.

What was measured:
[1] = tested on: NCI-H460 human non-small cell lung carcinoma xenograft; experiment: Compound 2 citrate salt vs. NCI-H460 xenograft model (pemetrexed, topotecan, cisplatin controls); conditions: qd×5
[2] = tested on: RPMI-8226 Human Multiple Myeloma; experiment: Human tumor cell CFU assay (Test B); format: cell-based; conditions: colony formation in agar, continuous exposure 7-9 days
Description: (§1) For human tumor cell CFU assays, the cell lines which grow as monolayers, MDA-MB-231, HCT116, HT29, NCI-H460, KB3-1 and KBV-1 were grown in RPMI medium (Invitrogen/Gibco, Grand Island, N.Y.) supplemented with 5% fetal bovine serum (Invitrogen/Gibco, Grand Island, NY). The RPMI-8226 cell line grows in suspension.
For human tumor cell CFU assays, RPMI-8226 cells were grown in 0.35% agar in DMEM-F12 medium supplemented with 10% fetal bovine serum over a base layer of 0.5% agar in DMEM-F12 medium supplemented with 10% fetal bovine serum
(§2) For experiments, human tumor cells (1 103) were plated in 6-well plates in medium supplemented with 5% or 10% fetal bovine serum. The compounds were tested in concentrations over the range from 0.01 to 100 nanomolar in half-log intervals covering […] along with untreated control wells. In later experiments some cases the concentration ranges were refined to focus on the region of interest in the response curves. Each compound concentration was tested in duplicate wells. Cultures were exposed to the compounds continuously for 7-9 days at 37° C. in a humidified atmosphere of 5% carbon dioxide balance air. Each experiment was performed three independent times. Colonies were defined as clusters containing 30 or more cells.
(§3) The values were expressed as the mean values with lower and upper 95% confidence intervals in nanomolar concentrations.

[3] = tested on: HT29 Human Colon Carcinoma; experiment: Human tumor cell CFU assay (Test B); format: cell-based; conditions: colony formation, continuous exposure 7-9 days; for IC50: read-out: IC50 Values (95% Lower and Upper Confidence Intervals); for IC90: read-out: IC90 Values (95% Lower and Upper Confidence Intervals)
Description: as §1, §2
(§4) For the monolayer cultures, colonies were visualized by staining with a preformulated crystal violet solution (Fisher Cat #291-472) which contained 0.41% crystal violet, 12% ethanol balance deionized water. To visualize the colonies, the medium was removed by aspiration; the monolayer was rinsed once with phosphate buffered saline which was removed by aspiration. Three drops of crystal violet solution was added to each well and the 6-well plate was rotated so that the crystal violet solution covered the surface area of each well. After 5 minutes exposure time, the wells were rinsed twice with phosphate buffered saline and the colonies were visible.
as §3

[4] = tested on: NCI-H460 Human Non-small Cell Lung Carcinoma; experiment: Human tumor cell CFU assay (Test B); format: cell-based; conditions: colony formation, continuous exposure 7-9 days; for IC50: read-out: IC50 Values (95% Lower and Upper Confidence Intervals); for IC90: read-out: IC90 Values (95% Lower and Upper Confidence Intervals)
Description: as §1, §2, §4, §3

[5] = tested on: KB3-1 HeLa Human Cervical Carcinoma; experiment: Human tumor cell CFU assay (Test B); format: cell-based; conditions: colony formation, continuous exposure 7-9 days; for IC90: read-out: IC90 Values (95% Lower and Upper Confidence Intervals)
Description: as §1, §2, §4, §3

[6] = tested on: HCT116 Human Colon Carcinoma; experiment: Human tumor cell CFU assay (Test B); format: cell-based; conditions: colony formation, continuous exposure 7-9 days; for IC50: read-out: IC50 Values (95% Lower and Upper Confidence Intervals); for IC90: read-out: IC90 Values (95% Lower and Upper Confidence Intervals)
Description: as §1, §2, §4, §3

[7] = tested on: KB-V1 MDR1+ KB3-1 Subline; experiment: Human tumor cell CFU assay (Test B); format: cell-based; conditions: colony formation, continuous exposure 7-9 days
Description: as §1, §2, §4, §3

[8] = tested on: KBH5.0 BCRP+ KB3-1 Subline; experiment: Human tumor cell CFU assay (Test B); format: cell-based; conditions: colony formation, continuous exposure 7-9 days; for IC50: read-out: IC50 Values (95% Lower and Upper Confidence Intervals)
Description: as §1, §2, §4, §3

[9] = tested on: MDA-MB-231 Human Breast Carcinoma; experiment: Human tumor cell CFU assay (Test B); format: cell-based; conditions: colony formation, continuous exposure 7-9 days; for IC50: read-out: IC50 Values (95% Lower and Upper Confidence Intervals); for IC90: read-out: IC90 Values (95% Lower and Upper Confidence Intervals)
Description: as §1, §2, §4, §3

[10] = tested on: MDA-MB-231 human breast tumor xenograft; conditions: qd×5

- melting point: 221 to 223 °C (dec.)
SMILES: CCN(CC)CCn1c(=O)c2cc(OC)c(OC)cc2c2cnc3cc4c(cc3c21)OCO4 [Example 19, 8,9-Dimethoxy-2,3-methylenedioxy-5-[2-(N,N-diethylamino)ethyl]-5H-dibenzo[c,h]1,6-naphthyridin-6-one]

- melting point: 285 to 286 °C
SMILES: COc1cc2c(=O)n(CCO)c3c4cc5c(cc4ncc3c2cc1OC)OCO5 [Example 13, 8,9-Dimethoxy-2,3-methylenedioxy-5-[2-(hydroxy)ethyl]-5H-dibenzo[c,h]1,6-naphthyridin-6-one]

SMILES: Nc1nc2[nH]cc(CCc3ccc(C(=O)N[C@@H](CCC(=O)O)C(=O)O)cc3)c2c(=O)[nH]1 [Pemetrexed, reference compound]
- antitumor activity ([1]; 100 and 150 mg/kg/day IP): not considered active
- body weight loss ([1]; 100 and 150 mg/kg/day IP): ≤ 20%

- melting point: 271 to 273 °C (dec.)
SMILES: COc1cc2c(cc1OC)-c1cnc3cc4c(cc3c1N(CCN(C)C)C2)OCO4 [Example 17, 8,9-Dimethoxy-2,3-methylenedioxy-5-[2-(N,N-dimethylamino)ethyl]-5,6-dihydro-dibenzo[c,h]1,6-naphthyridine]

- melting point: 235 °C
SMILES: COc1cc2c(=O)n(CCOCCO)c3c4cc5c(cc4ncc3c2cc1OC)OCO5 [Example 14, 8,9-Dimethoxy-2,3-methylenedioxy-5-[2-(2-hydroxyethoxy)ethyl]-5H-dibenzo[c,h]1,6-naphthyridin-6-one]

- melting point: 262 to 264 °C (dec.)
SMILES: COc1cc2c(=O)n(CCCN(C)C)c3c4cc5c(cc4ncc3c2cc1OC)OCO5 [Example 11, 8,9-Dimethoxy-2,3-methylenedioxy-5-[3-(N,N-dimethylamino)propyl]-5H-dibenzo[c,h]1,6-naphthyridin-6-one]

SMILES: CCc1c2c(nc3ccc(O)cc13)-c1cc3c(c(=O)n1C2)COC(=O)[C@]3(O)CC [SN-38, 7-ethyl-10-hydroxyl-camptothecin, reference compound]
- IC50 [2]: 0.9 nM
- IC90 [2]: 3 nM
- IC50 [3]: 0.5 nM
- IC90 [3]: 1.8 nM
- IC50 [4]: 4.7 nM
- IC90 [4]: 13.3 nM
- IC50 [5]: 5.3 nM
- IC90 [5]: 19.1 nM
- IC50 [6]: 2.7 nM
- IC90 [6]: 8.4 nM
- IC50 [7]: 15 nM
- IC90 [7]: 55 nM
- IC90 [8]: 18.8 nM
- IC50 [8]: 6.1 nM
- IC50 [9]: 0.7 nM
- IC90 [9]: 2 nM

- melting point: 294 to 295 °C
SMILES: COc1cc2c(=O)n(CCN3CCCCC3)c3c4cc5c(cc4nnc3c2cc1OC)OCO5 [Example 6, 2,3-Dimethoxy-8,9-methylenedioxy-11-[2-(piperidin-1-yl)ethyl]-11H-5,6,11-triaza-chrysen-12-one]

SMILES: COc1cccc2c1C(=O)c1c(O)c3c(c(O)c1C2=O)C[C@@](O)(C(=O)CO)C[C@@H]3O[C@H]1C[C@H](N)[C@H](O)[C@H](C)O1 [Doxorubicin, reference compound]
- toxic deaths ([10]; both dosages, 2.5 and 3 mg/kg/day IP): there were toxic deaths

- melting point: 186 to 187 °C
SMILES: COc1cc2c(=O)n(C(C)CN(C)C)c3c4cc5c(cc4ncc3c2cc1OC)OCO5 (stereo not shown) [Example 8, 8,9-Dimethoxy-2,3-methylenedioxy-5-[2-(N,N-dimethylamino)-1-methylethyl]-5H-dibenzo[c,h]1,6-naphthyridin-6-one]

- melting point: 255 to 257 °C (dec.)
SMILES: COc1cc2c(=O)n(CCN3CCCC3)c3c4cc5c(cc4ncc3c2cc1OC)OCO5 [Example 9, 8,9-Dimethoxy-2,3-methylenedioxy-5-[2-(pyrrolidin-1-yl)ethyl]-5H-dibenzo[c,h]1,6-naphthyridin-6-one]

- IC50 ([2]; Homo sapiens, RPMI-8226): 0.7 nM
- IC90 ([2]; Homo sapiens, RPMI-8226): 2.5 nM
- IC50 ([3]; Homo sapiens, HT-29): 0.5 nM
- IC90 ([3]; Homo sapiens, HT-29): 1.5 nM
- IC50 ([4]; Homo sapiens, NCI-H460): 0.9 nM
- IC90 ([4]; Homo sapiens, NCI-H460): 3 nM
- IC50 ([5]; Homo sapiens): 0.8 nM
- IC90 ([5]; Homo sapiens): 2.8 nM
- IC50 ([6]; Homo sapiens, HCT-116): 0.4 nM
- IC90 ([6]; Homo sapiens, HCT-116): 1.7 nM
- IC50 ([7]; Homo sapiens): 0.6 nM
- IC90 ([7]; Homo sapiens): 2.8 nM
- IC90 ([8]; Homo sapiens, KB 3-1): 2.3 nM
- IC50 ([8]; Homo sapiens, KB 3-1): 0.6 nM
- IC50 ([9]; Homo sapiens, MDA-MB-231): 0.5 nM
- IC90 ([9]; Homo sapiens, MDA-MB-231): 0.9 nM
SMILES: COc1cc2c(C(=O)NCC(C)(C)N(C)C)cc3c4cc5c(cc4ncc3c2cc1OC)OCO5 [Compound 3]

- melting point: 229 °C
SMILES: COc1cc2c(=O)n(CCN3CCCC3)c3c4cc5c(cc4nnc3c2cc1OC)OCO5 [Example 5, 2,3-Dimethoxy-8,9-methylenedioxy-11-[2-(pyrrolidin-1-yl)ethyl]-11H-5,6,11-triaza-chrysen-12-one]

- IC50 ([2]; Homo sapiens, RPMI-8226): 12.7 nM
- IC90 ([2]; Homo sapiens, RPMI-8226): 43.2 nM
- IC50 ([3]; Homo sapiens, HT-29): 2.9 nM
- IC90 ([3]; Homo sapiens, HT-29): 11.2 nM
- IC50 ([4]; Homo sapiens, NCI-H460): 18.2 nM
- IC90 ([4]; Homo sapiens, NCI-H460): 52.5 nM
- IC50 ([5]; Homo sapiens): 32.7 nM
- IC90 ([5]; Homo sapiens): 107 nM
- IC50 ([6]; Homo sapiens, HCT-116): 8.5 nM
- IC90 ([6]; Homo sapiens, HCT-116): 26.3 nM
- IC50 ([7]; Homo sapiens): 75 nM
- IC90 ([7]; Homo sapiens): 257 nM
- IC90 ([8]; Homo sapiens, KB 3-1): 115 nM
- IC50 ([8]; Homo sapiens, KB 3-1): 32 nM
- IC50 ([9]; Homo sapiens, MDA-MB-231): 5.6 nM
- IC90 ([9]; Homo sapiens, MDA-MB-231): 19.5 nM
SMILES: CC[C@@]1(O)C(=O)OCc2c1cc1n(c2=O)Cc2cc3c(CN(C)C)c(O)ccc3nc2-1 [Topotecan, reference compound]
- body weight loss ([1]; 2 and 2.5 mg/kg/day IP): > 30%

- melting point: 153 to 154 °C
SMILES: COc1cc2c(cc1OC)-c1cnc3cc4c(cc3c1N(C(C)CN(C)C)C2)OCO4 (stereo not shown) [Example 18, 8,9-Dimethoxy-2,3-methylenedioxy-5-[2-(N,N-dimethylamino)-1-methylethyl]-5,6-dihydro-dibenzo[c,h]1,6-naphthyridine]

- IC50 ([2]; Homo sapiens, RPMI-8226): 0.4 nM
- IC90 ([2]; Homo sapiens, RPMI-8226): 1.5 nM
- IC50 ([3]; Homo sapiens, HT-29): 0.5 nM
- IC90 ([3]; Homo sapiens, HT-29): 1.9 nM
- IC50 ([4]; Homo sapiens, NCI-H460): 3.4 nM
- IC90 ([4]; Homo sapiens, NCI-H460): 11 nM
- IC50 ([5]; Homo sapiens): 1 nM
- IC90 ([5]; Homo sapiens): 4 nM
- IC50 ([6]; Homo sapiens, HCT-116): 1.2 nM
- IC90 ([6]; Homo sapiens, HCT-116): 4.4 nM
- IC50 ([7]; Homo sapiens): 1.4 nM
- IC90 ([7]; Homo sapiens): 6.9 nM
- IC90 ([8]; Homo sapiens, KB 3-1): 6 nM
- IC50 ([8]; Homo sapiens, KB 3-1): 1.3 nM
- IC50 ([9]; Homo sapiens, MDA-MB-231): 0.3 nM
- IC90 ([9]; Homo sapiens, MDA-MB-231): 1 nM
SMILES: COc1cc2c(=O)n(CCN(C)C(C)C)c3c4cc5c(cc4ncc3c2cc1OC)OCO5 [Compound 4]

SMILES: O=C(O)C(=O)O.[NH-][C@@H]1CCCC[C@H]1[NH-].[Pt+2] [Oxaliplatin, reference compound]
- delay in tumor growth ([10]; 5 and 6.5 mg/kg/day IP): 13 days
- tolerability ([10]; 5 and 6.5 mg/kg/day IP): well tolerated
- TGI (T/C) ([10]; both dosages, 5 and 6.5 mg/kg/day IP): 45.1-47.6%

- IC50 ([2]; Homo sapiens, RPMI-8226): 1.8 nM
- IC90 ([2]; Homo sapiens, RPMI-8226): 5.8 nM
- IC50 ([3]; Homo sapiens, HT-29): 1.3 nM
- IC90 ([3]; Homo sapiens, HT-29): 4.3 nM
- IC50 ([4]; Homo sapiens, NCI-H460): 2.3 nM
- IC90 ([4]; Homo sapiens, NCI-H460): 6.2 nM
- IC50 ([5]; Homo sapiens): 1.5 nM
- IC90 ([5]; Homo sapiens): 5.2 nM
- IC50 ([6]; Homo sapiens, HCT-116): 1.7 nM
- IC90 ([6]; Homo sapiens, HCT-116): 5.6 nM
- IC50 ([7]; Homo sapiens): 1.8 nM
- IC90 ([7]; Homo sapiens): 5.7 nM
- IC90 ([8]; Homo sapiens, KB 3-1): 5.8 nM
- IC50 ([8]; Homo sapiens, KB 3-1): 1.8 nM
- IC50 ([9]; Homo sapiens, MDA-MB-231): 0.3 nM
- IC90 ([9]; Homo sapiens, MDA-MB-231): 1.2 nM
SMILES: COc1cc2c(=O)n(CCN(C)C)c3c4cc5c(cc4ncc3c2cc1OC)OCO5 [Compound 1]
